Converted amounts (≈) assume the structure as drawn.
Experiments:
Assay type in all cases: cell-based
[1] = tested on: Jurkat; test: Cell culture inhibitory dose (CCID50) in Jurkat; details: cell counting, trypan blue exclusion, 7 days post drug treatment
Experimental: (§1) Evaluation of Cell Culture Inhibitory Dose (CCID50)
(§2) Cell growth was determined by cell counting and viability by trypan blue exclusion 7 days post drug treatment. CCID50 is expressed as the drug concentration which inhibits 50% of cell growth.

[2] = tested on: HIV-1 HXB2D; test: IC50 in CBMCs with constructed virus HXB2D; details: Human immunodeficiency virus 1, read-out: IC50 HXB2D
Experimental: (§3) In short, viruses (HTLV-IIIB) that had initially been grown on MT-4 cells were passaged onto phytohemaglutinin-prestimulated cord blood mononuclear cells (CBM). For subsequent analysis, samples of CBM (5×10^5 cells per mL) were pretreated with various concentrations of the different compounds for 4 h and were then inoculated with CBL-grown HIV-1 at a multiplicity of infection of 1.0 in the concentration of the compound used for the pretreatment. Fresh medium, including the appropriate concentration of the compound was added three times weekly, and fresh phytohemaglutinin-prestimulated CBM (5×10^5 cells per mL) were added at 2-day intervals. The calculation of IC50 was determined on the basis of RT levels in culture fluids as described in Gao et al., (1992), J. Virol. 66: 12-19.
(§4) Determination of IC50 (μM) in Different Mutated Isolates of HIV-1 in the Presence of Different Antiviral Compounds
(§5) The procedure is similar to the procedure used in the CBM assay, with the exception that constructed virus and construted mutated virus were used.
(§6) The constructed virus HXB2D-65 correspond to the ddC resistance mutation and the constructed virus HXB2D-184 correspond to the 3TC™ and FTC resistance mutation.

[3] = tested on: U937; test: Cell culture inhibitory dose (CCID50) in U937; details: cell counting, trypan blue exclusion, 7 days post drug treatment
Experimental: as §1, §2

[4] = tested on: CBMCs; test: Cell culture inhibitory dose (CCID50) in CBMCs; details: cell counting, trypan blue exclusion, 7 days post drug treatment
Experimental: as §1, §2

[5] = tested on: HIV-1 HXB2D-184 M→V (3TC™ and FTC resistance mutation); test: IC50 in CBMCs with constructed mutated virus HXB2D-184; details: Human immunodeficiency virus 1, read-out: IC50 HXB2D-184 M→V
Experimental: as §3, §4, §5, §6

[6] = tested on: HIV-1 strain RF; test: Formazan (MTT) assay on MT-4 cells, anti-HIV-1 antiviral activity; details: Human immunodeficiency virus 1, MT4, 168 h, MT-4 cells infected with HIV-1 strain RF, 7 days, read-out: IC50 (50% anti-viral dose, ID 50%)
Experimental: Formazan Assay on MT-4 and 3TC™-Resistant Cell Lines
Anti-HIV-1 antiviral activity was determined in MT-4 calls and MT-4 cells that have been made resistant to 3TC™. A suspension of cells (approximately 10^6 cells/ml) in RPMI 1640 growth medium was infected with HIV-1 strain RF at a M.O.I. of 10^−3 infectious units/cell. An uninfected cell suspension was prepared in parallel to evaluate drug-induced cytotoxicity. The two suspensions were incubated for 90 minutes at room temperature. Test compounds were serially diluted in 10-fold decrements from 100 μg/ml to 0.01 μg/ml (final concentrations in two 96 well microtitre plates. 20 μl of infected cell suspension were inoculated into each well of one of the plates (anti-viral), while 20 μl of uninfected cell suspension were added to each well of the second plate (cytotoxicity). The plates were then incubated for 7 days at 37° C. After incubation, 10 μl of 3-(4,5-dimethylthiazol-2-yl)-2,5-diphenyltetrazolium bromide (MTT) at 20 mg/ml was added to all wells and the plates incubated for a further 90 minutes at 37° C.
150 μl of 10% (v/v) alcoholic Triton X-100 was then added and the cells resuspended. After 15 minutes at room temperature, the plates were analyzed in a Multiskan MC reader at 405 nm. Conversion of yellow MMT to its formazan derivative is maximum in uninfected cells, and absent in untreated infected cells. The optical density values for the cytotoxicity controls and the antiviral test wells were graphically plotted and the dose of compounds required to inhibit the conversion of MMT to 50% of the untreated uninfected controls was calculated. In this way, both the 50% cytotoxic dose (CD 50%) and the 50% anti-viral dose (ID 50%) can be calculated.

[7] = tested on: C8166 cells; test: Cytotoxicity (CD50) reported with syncytium formation assay; details: syncytium formation table
[8] = tested on: H9; test: Cell culture inhibitory dose (CCID50) in H9; details: cell counting, trypan blue exclusion, 7 days post drug treatment
Experimental: as §1, §2

[9] = tested on: CEM; test: Cell culture inhibitory dose (CCID50) in CEM; details: cell counting, trypan blue exclusion, 7 days post drug treatment
Experimental: as §1, §2

[10] = tested on: HIV-1 (HTLV-IIIB); test: CBM assay, IC50 from RT levels in culture fluids; details: Human immunodeficiency virus 1
Experimental: Assays on cord blood mononuclear cells were done substantially as described in Gu et al., J. Virol. (1992), 66:7128-7135.
as §3

[11] = tested on: 2.2.15 cells (Hep G2 cells transfected with human hepatitis B virus genomic DNA); test: Cytotoxicity (CD50) reported with HBV assay; details: HBV table
Experimental: (§7) The method used for this test is described in detail in Korba et al., Antiviral research 15, 217-228 (1992) which is shortly described as follows: Hep G2 cells transfected with human hepatitis B virus genomic DNA (2.2.15 cells) were grown and maintained in RPMI-1640 culture medium containing %5 foetal bovine serum, 2 mM glutamine and 50 μg/ml gentamicin sulphate, and checked routinely for G418 resistance. Cultures of 2.2.15 cells were grown to confluence in 24 well tissue culture plates and maintained for 2 to 3 days in that condition prior to drug treatment.

[12] = tested on: human hepatitis B virus; test: Inhibition of human hepatitis B virus in 2.2.15 cells, extracellular HBV DNA; details: 10 day treatment
Experimental: Inhibition of Human Hepatitis B Virus.
as §7
Drugs were dissolved in sterile water or sterile 50% DMSO in water at concentrations 100-fold higher than the higher test concentration. These solutions were diluted as needed in culture medium.
The culture medium on the confluent cells was changed 24 hours prior to exposure to test compounds. During the 10 day treatment, the culture medium was changed daily. After 10 days of the treatment, the culture medium was collected and frozen at −70° C. for HBV DNA analysis. […]
A purified 3.2 kb EcoR1 HBV DNA fragment was labeled with [^32p]dCTP by nick translation and used as a probe to detect HBV DNA on the dot-blot by DNA hybridization. After washing, the hybridized blot was dried and ^32p was quantified using an Ambis beta scanner.

Nc1nc(=O)n([C@H]2CO[C@@H](CO)S2)cc1F [compound 3, 2R-hydroxymethyl-4R-(5′-fluorocytosin-1′-yl)-1,3-oxathiolane]
CCID50 Jurkat [1]: >500 µM
IC50 [2]: 3000 nM
CCID50 U937 [3]: >500 µM
CCID50 CBMCs [4]: >500 µM
IC50 [5]: 9000 nM
IC50 [6]: 6 µg/mL (≈ 24.3 µM)
CD50 [7]: >100 µg/mL
CCID50 H9 [8]: >500 µM
CCID50 CEM [9]: >500 µM
IC50 [10]: 0.002 to 0.05 µg/mL (≈ 0.00809 to 0.202 µM)

Nc1nc(=O)n([C@@H]2CO[C@H](CO)S2)cc1F [compound 4, 2S-hydroxymethyl-4S-(5′-fluorocytosin-1′-yl)-1,3-oxathiolane]
CCID50 Jurkat [1]: >500 µM
IC50 [2]: 3000 nM
CCID50 U937 [3]: >500 µM
CCID50 CBMCs [4]: >500 µM
IC50 [5]: 2000 nM
IC50 [6]: 2.9 µg/mL (≈ 11.7 µM)
CD50 [7]: >100 µg/mL
CCID50 H9 [8]: >500 µM
CCID50 CEM [9]: >500 µM
IC50 [10]: 0.02 to 0.05 µg/mL (≈ 0.0809 to 0.202 µM)

Nc1ccn([C@@H]2CO[C@H](CO)S2)c(=O)n1 [Compound #2, 2S-hydroxymethyl-4S-(cytosin-1′-yl)-1,3-oxathiolane]
CD50 (HBV) [11]: >10 µg/mL
CCID50 Jurkat [1]: 11 µM
IC50 [2]: 100 nM
CCID50 U937 [3]: 22 µM
CCID50 CBMCs [4]: 105 µM
IC50 [5]: 3000 nM
IC50 [6]: 4.4 µg/mL (≈ 19.2 µM)
ID50 (HBV) [12]: 4 µg/mL (≈ 17.4 µM)
CD50 [7]: >100 µg/mL
CCID50 H9 [8]: >500 µM
CCID50 CEM [9]: 103 µM
IC50 [10]: 0.03 to 1.22 µg/mL (≈ 0.131 to 5.32 µM)
